Data taken from patent publication US8501722B2, “Methods and compositions for treating bacterial infection” (priority 2009, dated 2013).

How the values were obtained:
[1] = test system: SK(+)GAS (UMAA2616); test: Survival of human plasminogen transgenic (Tg+) mice infected with GAS; assay type: in vivo; conditions: 6*10^5 CFU SK(+)GAS; 5 μg per mouse intraperitoneally daily for 5 days, starting one day after infection
Method: To examine the in vivo efficacy of compounds CCGC, CCGE, and CCGF, Tg+ mice were first infected with 6*10^5 CFU SK(+)GAS, then injected with 5 μg of test compound per mouse intraperitoneally daily for 5 days, starting one day after infection. […] In some embodiments, small compound are delivered continuously through an ALZET® Osmotic Pump (DURECT Corporation, Cupertino, Calif.).
Tg+ mice are then used to test the efficacy of compounds in attenuating the virulence of GAS infection. 20 Tg+ mice are infected with 10^5 CFU of SK(+)GAS then injected with the estimated experimental doses of the compounds two hours later. Survival is monitored for 9 days, while a control group of Tg+ mice will be infected with SK(+)GAS injected with DMSO. The comparison of mortalities between the two groups is analyzed as described above in the toxicity test. Treating mice with compound post-infection helps avoid potential side-effects of toxic or growth inhibition of compound on SK(+)GAS at the time of infection. As a result, the effect of compound on mice survival is a more authentic reflection of the efficacy of compound on inhibiting GAS virulence. Possible scenarios include:
This example describes the in vivo efficacy of compound 575096. Human plasminogen transgenic mice (Tg+) were first infected with 10^5″^6 CFUUMAA2616, then injected with 5-30 lag of test compound per mouse intraperitoneally daily for 5 days, starting one day after infection.

[2] = test system: SKKanGAS; test: Growth-based turbidometric screen, SKKanGAS under kanamycin (kanamycin resistance gene under ska promoter); assay type: cell-based, Group A Streptococcus; conditions: for effect on SKKanGAS and SK-GAS growth: dose response under kanamycin selection, FIG. 11
Source text: A GAS strain was generated to have kanamycin resistance gene under the control of ski promoter to be used to screen for SK inhibitors. A transgenic GAS has been generated in SK(+)GAS host so that kanamycin resistance gene is driven by ska promoter in an extrachromosomal plasmid. The engineered GAS strain (SKKanGAS) was also kanamycin resistant. This kanamycin resistance gene in SK(−)GAS strain is within the omega-Km2 element whose promoter is independent of ska promoter (Khil et al., J. Infect. Dis. 2003; 188:497-505; Ringdahl et al., J. Biol. Chem. 1998; 273:6424-6430). As a result, SK(−)GAS can serve as a control in the screen for SK promoter to weed out compounds that inhibit GAS growth or interfere with kanamycin resistance protein function. […] A cutoff criterion was set to select compounds that can inhibit 50% growth in SKKanGAS while inhibiting less than 10% growth in SK(−)GAS. A total of 95 compounds met this criterion. As a result, these compounds were chosen for dose response assays and pIC50 of growth inhibition of each hit compound was then estimated. […] An example is given as FIG. 10.
Only SKKanGAS is used for screening in the primary screening. Briefly, 30 μl THY medium containing 20 μg/ml kanamycin is first plated into 384-well plates (384 microtiter plate, Corning #3701) and compounds are added into the wells. SKKanGAS strain is grown to OD600 nm=0.8. SKKanGAS is then diluted 12.5 fold into 20 μg/ml kanamycin THY medium. SKKanGAS mixture (10 μl) is added into each well of the 384-well plates. […] The plates are cultured at 37° C. for 16-20 hours. Growth of bacteria in each well is measured by absorbance at 600 nm. Z′>0.5, which is compatible with high throughput screening, has been typically obtained with the 384-well plate format in which 55,000 small compounds have been screened. […] SKKanGAS is a BSL2 level agent and can be stored at −80° C. SKKanGAS can be cultured at 37° C. in THY or Bill medium which is commercially available (Fisher Scientific, Pittsburgh, Pa.).
Once hit compounds have been identified by the primary screening, they are applied to dose response assays with both SKKanGAS and SK(−)GAS stains. SKKanGAS and SK(−)GAS are grown in 20 μg/ml kanamycin with serial dilution of hit compounds (DMSO final concentration=1% in THY medium). Plates are incubated at 37° C. for 15-20 hours in a climate controlled room (humidity 50%). The absorbance is measured at 600 nm. pIC50 of growth inhibition of each hit compound is then determined. Compounds that with at least 10 fold lower IC50 in SKKanGAS than SK(−)GAS strain are identified and subjected to secondary confirmatory assay. As a result, dose response assay identifies and eliminates most nonspecific compounds that may inhibit GAS growth or interfere with kanamycin resistance protein function.

Row | SMILES | survival rate of Tg+ mice compared to DMSO control group [1] | effect on SKKanGAS and SK-GAS growth [2] | SKKanGAS growth susceptibility to known antibiotics ([2]; preliminary screening with 2,000 known compounds (The Spectrum Collection))
1 | COc1cc(C=CC(=O)c2cc(C)c(C)cc2C)cc(OC)c1OC [CCGF] | trend toward improvement | specific inhibition of SKKanGAS growth under kanamycin selection | 
2 | C=CCn1c(SCCCC)nc2c(c1=O)C1(CCCCC1)Cc1ccccc1-2 [CCGE] | significant improvement in survival rate | specific inhibition of SKKanGAS growth under kanamycin selection | 
3 | COC(=O)c1ccccc1Sc1c(-c2ccccc2)nc2ccccn12 [CCGC] | No improvement | specific inhibition of SKKanGAS growth under kanamycin selection | 
4 | CC[C@H]1OC(=O)[C@H](C)[C@@H](O[C@H]2C[C@@](C)(OC)[C@@H](O)[C@H](C)O2)[C@H](C)[C@@H](O[C@@H]2O[C@H](C)C[C@H](N(C)C)[C@H]2O)[C@](C)(O)C[C@@H](C)C(=O)[C@H](C)[C@@H](O)[C@]1(C)O [erythromycin, reference compound] |  |  | susceptible
